Test system: Streptococcus
Assay: Antimicrobial activity against group A streptococci assessed as percent resistant isolates by Etest
Type: functional

| SMILES | Activity [%] |
| --- | --- |
| CC[C@H]1OC(=O)[C@H](C)[C@@H](O[C@H]2C[C@@](C)(OC)[C@@H](O)[C@H](C)O2)[C@H](C)[C@@H](O[C@@H]2O[C@H](C)C[C@H](N(C)C)[C@H]2O)[C@](C)(O)C[C@@H](C)C(=O)[C@H](C)[C@@H](O)[C@]1(C)O [ERYTHROMYCIN] | 25 |
| CN(C)[C@@H]1C(O)=C(C(N)=O)C(=O)[C@@]2(O)C(O)=C3C(=O)c4c(O)cccc4[C@@](C)(O)[C@H]3C[C@@H]12 [TETRACYCLINE] | 38 |

— ChEMBL document CHEMBL1143848, “Tetracycline resistance in group a streptococci: emergence on a global scale and influence on multiple-drug resistance” (2007)
